Earlier results in patent publication US11930809B2, “Preservation of biomaterial properties and methods of storing” (LIFELINE SCIENTIFIC, INC., priority 2012, dated 2024).

What was measured:
[1] = tested on: chondrocytes in articular cartilage; conditions: conventional cryopreservation by freezing in a solution that includes DMSO
[2] = early Phase clinical studies

For C[S+](C)[O-] [DMSO, dimethyl sulfoxide], the “death of chondrocytes in articular cartilage” value [1] is listed as 80-100%.

In the case of COC(=O)C1=CO[C@@H](O)[C@@H]2C(CO)=CC[C@H]12 [genipin], the “expression of TIMP-1” value (TIMP-1) is given as “upregulate the expression of TIMP-1”.

In the case of “PCK3145: synthetic peptide corresponding to amino acids 31-45 of prostate secretory protein 94 (EWQTDNCETCTCYET; UniProt P08118 51-65, looked up, fragment)”, the tolerability [2] is listed as “well tolerated”.
